For orientation: IC50 means the point on the concentration scale where inhibition reaches its midpoint.

Sequence of USP1/UAF1 (O94782 whole entry): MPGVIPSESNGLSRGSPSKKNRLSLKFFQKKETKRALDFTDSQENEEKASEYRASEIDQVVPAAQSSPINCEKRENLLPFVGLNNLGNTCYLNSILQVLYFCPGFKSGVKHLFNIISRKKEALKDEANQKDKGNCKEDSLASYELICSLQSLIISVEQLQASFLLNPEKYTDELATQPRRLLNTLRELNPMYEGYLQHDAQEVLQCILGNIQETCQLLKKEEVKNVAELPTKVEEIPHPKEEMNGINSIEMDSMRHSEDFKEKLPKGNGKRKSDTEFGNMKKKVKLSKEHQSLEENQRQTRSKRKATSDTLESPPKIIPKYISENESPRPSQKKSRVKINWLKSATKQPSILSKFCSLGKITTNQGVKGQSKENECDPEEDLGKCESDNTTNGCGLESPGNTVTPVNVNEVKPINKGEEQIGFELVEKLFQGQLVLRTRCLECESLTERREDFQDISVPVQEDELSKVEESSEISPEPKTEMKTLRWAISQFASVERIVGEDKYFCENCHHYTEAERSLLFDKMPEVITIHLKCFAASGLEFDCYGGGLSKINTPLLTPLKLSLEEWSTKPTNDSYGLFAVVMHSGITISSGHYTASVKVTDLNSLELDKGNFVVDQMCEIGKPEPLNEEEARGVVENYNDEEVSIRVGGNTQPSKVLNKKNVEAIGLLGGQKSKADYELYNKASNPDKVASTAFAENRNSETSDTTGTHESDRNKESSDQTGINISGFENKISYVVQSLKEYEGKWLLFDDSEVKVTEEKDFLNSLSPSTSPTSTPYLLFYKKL
Sequence of USP1/UAF1 (Q8TAF3 whole entry partner): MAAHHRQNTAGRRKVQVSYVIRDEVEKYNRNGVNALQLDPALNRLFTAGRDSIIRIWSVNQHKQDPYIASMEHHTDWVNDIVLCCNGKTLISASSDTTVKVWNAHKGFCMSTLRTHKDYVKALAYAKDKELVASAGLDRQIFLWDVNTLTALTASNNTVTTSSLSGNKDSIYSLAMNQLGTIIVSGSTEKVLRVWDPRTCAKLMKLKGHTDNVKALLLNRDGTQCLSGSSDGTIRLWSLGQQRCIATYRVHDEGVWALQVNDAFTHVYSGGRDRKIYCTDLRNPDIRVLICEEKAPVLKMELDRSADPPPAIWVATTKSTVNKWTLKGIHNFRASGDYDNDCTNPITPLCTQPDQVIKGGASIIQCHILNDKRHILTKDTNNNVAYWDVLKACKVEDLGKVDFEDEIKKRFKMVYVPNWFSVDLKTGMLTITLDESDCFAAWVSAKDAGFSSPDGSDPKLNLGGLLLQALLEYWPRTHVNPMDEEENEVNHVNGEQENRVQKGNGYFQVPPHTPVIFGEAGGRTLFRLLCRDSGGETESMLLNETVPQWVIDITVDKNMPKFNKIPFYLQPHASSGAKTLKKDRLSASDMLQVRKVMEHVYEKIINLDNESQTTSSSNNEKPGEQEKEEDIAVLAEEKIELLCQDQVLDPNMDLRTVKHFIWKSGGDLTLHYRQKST

This test concerns the target USP1/UAF1 (Homo sapiens (Human), UniProt O94782). Nature of the test: Deubiquitination assay for USP1/UAF1 activity (ubiquitin-rhodamine 110). Format: biochemical. The conditions noted are these: Table 4; 0.05 nM USP1/UAF1, 150 nM ubiquitin-rhodamine.
In the case of `COc1ncnc(C2CC2)c1-c1ncc2ncn(Cc3ccc(-c4nc(C(F)(F)F)cn4C(C)C)cc3)c2n1` [drawing 818], the IC50 is 10 to 100 nM.
Regarding `CCn1cc(C(F)(F)F)nc1-c1ccc(Cn2nc(OC)c3cnc(-c4c(OC)ncnc4C4CC4)nc32)cc1` [drawing 819], the IC50 was 10 to 100 nM.
On to `CCn1cc(C(F)(F)F)nc1-c1ccc(Cn2nc(OC)c3cnc(-c4c(OC)ncnc4C4CC4)nc32)cc1` [drawing 820], for which the IC50 is 10 to 100 nM.
The same measure for `COc1ncnc(C2CC2)c1-c1ncc2nc(C)n(Cc3ccc(-c4nc(C(F)(F)F)cn4C)cc3)c2n1` [drawing 821]: 100 to 200 nM.
Compound `COc1ncnc(C2CC2)c1-c1ncc2nc(C3CC3)n(Cc3ccc(-n4nc(C(F)(F)F)cc4C)cc3)c2n1` [drawing 822] yielded a 50% inhibitory concentration (IC50) of 10 to 100 nM.
The same measure for `COc1ncnc(C2CC2)c1-c1ncc2nc(C3CCC3)n(Cc3ccc(-n4nc(C(F)(F)F)cc4C)cc3)c2n1` [drawing 823]: 10 to 100 nM.
With `COc1ncnc(C2CC2)c1-c1ncc2nc(C(C)C)n(Cc3ccc(-n4nc(C(F)(F)F)cc4C)cc3)c2n1` [drawing 824], the IC50 fell in the range of 100 to 200 nM.
In turn, `CCc1nc2cnc(-c3c(OC)ncnc3C3CC3)nc2n1Cc1ccc(-n2nc(C(F)(F)F)cc2C)cc1` [drawing 825] returned an IC50 of 10 to 100 nM.
As to `COc1ncnc(C2CC2)c1-c1ncc2ccn(Cc3ccc(-c4nc(C(F)(F)F)cn4C)cc3)c2n1` [drawing 826], the IC50 fell in the range of 10 to 100 nM.
As for `COc1ncnc(C2CC2)c1-c1ncc2nc(C)n(Cc3ccc(-n4nc(C(F)(F)F)cc4C)cc3)c2n1` [drawing 827], the IC50 lay in the range of 10 to 100 nM.
Compound `COc1ncnc(C2CC2)c1-c1ncc2nnn(Cc3ccc(-c4nc(C(F)(F)F)cn4C)cc3)c2n1` [drawing 828] returned an IC50 of 10 to 100 nM.
As for `COc1ncnc(C2CC2)c1-c1ncc2ncn(Cc3ccc(-n4nc(C(F)(F)F)cc4C)cc3)c2n1` [drawing 830], the figure is 100 to 200 nM; as for `COc1ncnc(C2CC2)c1-c1ncc2ncn(Cc3ccc(-c4nc(C(F)(F)F)cn4C)cc3)c2n1` [drawing 831], 100 to 200 nM; as for `CC(C)c1ccccc1-c1ncc2ncn(Cc3ccc(-c4nc(C(F)(F)F)cn4C)cc3)c2n1` [drawing 832], 10 to 100 nM.

Source of the values: US11485736B2 (KSQ Therapeutics, Inc., priority 2018, dated 2022).
